In patent publication US7863255B2, “Methods of administering antitumor agent comprising deoxycytidine derivative” (Taiho Pharmaceutical Co., Ltd., priority 2008, dated 2011):

Tests used:
[1] = system: human pancreatic cancer line PAN-4; experiment: Antitumor effect of continuous intravenous infusion in tumor-bearing rats; type: in vivo, rat; details: two-week continuous infusion 4.5 mg/kg/day Days 1 to 14 compared with 24-hour continuous infusion 36 mg/kg/day Day 1
Experimental: (§1) A relation between the antitumor effect and side effect (body weight suppression) was studied in a continuous intravenous infusion of CNDAC administered to tumor-bearing rats having the human pancreatic cancer line PAN-4. FIGS. 3 and 4 indicate the results.
(§2) CNDAC was administered by continuous intravenous infusion (continuously injected under the skin for 24 hours using a subcutaneous implantation constant-speed pump) in an amount of 36 mg/kg/day on Day 1, or 4.5 mg/kg/day on Days 1 to 14. Relative tumor volume was obtained and compared in a CNDAC administered group and a non-administered group (control group) of each administration method.

[2] = system: human breast cancer and colon cancer lines; experiment: Antitumor effect, rapid vs continuous intravenous infusion in tumor-bearing rat models, further lines; type: in vivo
[3] = system: patients having a variety of solid cancers; experiment: Clinical Phase I equivalent test, continuous intravenous infusion for 336 hours once every three weeks; type: in vivo, human
Experimental: The frequency of adverse events and treatment effect were studied in a case where a course was repeatedly performed in which the antitumor agent was administered to cancer patients by continuous intravenous infusion in an amount of 2.0 to 4.0 mg/m^2 of CNDAC (free base) for a duration of 336 hours once every three weeks.
(§3) The present test was conducted on patients having a variety of solid cancers for which standard treatment was ineffective or no treatment was available (e.g., digestive system cancer, head and neck cancer, breast cancer, and the like). The test is equivalent to the Clinical Phase I Test, which primarily evaluates safety so as to determine a recommended dose (RD) that can be safely administered with no side effect concerns in the Clinical Phase II Test implemented per cancer type. Treatment effect on tumors was also evaluated in the test when possible. In the treatment effect test, the cytoreductive effect was determined based on comprehensive evaluation of target lesions (lesions having a size measurable at a slice width on CT and a larger size) and non-target lesions (all lesions not included in the target lesions), with reference to the RECIST evaluation method (Journal of the National Cancer Institute, 2000, Vol. 92, No. 3, 205-216). […] SD (stable disease) indicates a case where reduction of tumors was not enough to be determined as PR, but insufficient to be determined as PD; and the progression of tumors stopped and no exacerbation was observed.

[4] = system: human colon cancer line KM20C; experiment: Antitumor effect of continuous intravenous infusion of CNDAC and gemcitabine in tumor-bearing rats; type: in vivo, rat
Experimental: The antitumor effect was studied in a continuous intravenous infusion of CNDAC and gemcitabine administered to tumor-bearing rats having the human colon cancer line KM20C. FIG. 2 indicates the results.
as §2, with “on Days 1 and 8,” for “on Day 1,”, “14. Alternatively, gemcitabine was administered by rapid intravenous infusion in an amount of 300 mg/kg/day once a week for two weeks (Days 1 and 8), or by continuous intravenous infusion in an amount of 1.0 mg/kg/day for two weeks.” for “14.”, “a drug” for “a CNDAC”

[5] = system: human lung cancer line LX-1; experiment: Antitumor effect, rapid vs continuous intravenous infusion in tumor-bearing rats; type: in vivo, rat; details: continuous infusion 4.5 mg/kg/day for two weeks compared with rapid intravenous infusion (800 mg/kg/day Days 1, 5, 8, 12 or 20 mg/kg/day Days 1-5 and 8-12)
Experimental: The antitumor effect was studied in rapid intravenous infusion and continuous intravenous infusion of CNDAC in tumor-bearing rat models. FIG. 1 indicates the study results of the antitumor effect in rapid intravenous infusion and continuous intravenous infusion of CNDAC administered to tumor-bearing rats having the human lung cancer line LX-1.
CNDAC (free base) was administered by rapid intravenous infusion (rapidly injected into a caudal vein using a syringe) in an amount of 800 mg/kg/day on Days 1, 5, 8, and 12, or 20 mg/kg/day on Days 1 to 5 and 8 to 12. Alternatively, CNDAC was administered by continuous intravenous infusion (continuously injected under the skin for 24 hours using a subcutaneous implantation constant-speed pump) in an amount of 4.5 mg/kg/day for two weeks. Relative tumor volume (a ratio of tumor volume on Day 1 of administration and that on Day 14 of administration) was obtained in a CNDAC administered group and a non-administered group (control group) of each administration method, and the obtained relative tumor volume was compared.

[6] = Side effect (body weight suppression) in tumor-bearing rats having PAN-4; type: in vivo, rat
Experimental: as §1, §2
Further, body weight reduction in the two-week continuous intravenous infusion group and 24-hour continuous intravenous infusion group was studied.

[7] = system: patients having a variety of solid cancers; experiment: Clinical Phase I equivalent test, continuous intravenous infusion for 168 hours once every two weeks; type: in vivo, human
Experimental: as §3
The frequency of adverse events and treatment effect were studied in a case where a course was repeatedly performed in which the antitumor agent was administered by continuous intravenous infusion in an amount of 3.0 to 4.0 mg CNDAC (free base) per square meter of body surface area for a duration of 168 hours once every two weeks. Tested patients, evaluation methods, and evaluation standards are the same as those in the test in Example 1.

[8] = system: human-derived tumor lines; experiment: Antitumor tests using animal models, rapid intravenous infusion; type: in vivo; details: rapid intravenous infusion for 10 consecutive days, five times a week for two weeks, or once a week for two weeks; majority of lines; regrowth after completion
Text: However, the regrowth of tumors was observed after completion of the administration, and the cytoreductive effect was not necessarily shown. Further, increasing the dosage so as to increase the antitumor effect causes toxicity, including body weight suppression and leucopenia.

[9] = 3.0 mg/m^2, 336 hours once every three weeks
[10] = 4.0 mg/m^2, 168 hours once every two weeks

## N#C[C@H]1[C@H](O)[C@@H](CO)O[C@H]1n1ccc(N)nc1=O [CNDAC, 4-amino-1-(2-cyano-2-deoxy-β-D-arabinofuranosyl)-2(1H)-pyrimidinone]
[1]
  antitumor effect (relative tumor volume): significantly high antitumor effect
[2]
  antitumor effect of continuous compared with rapid intravenous infusion: The effect was exhibited
[3]; 2.0 mg/m^2, 336 hours once every three weeks
  adverse event requiring interruption of the administration: no adverse event was seen that required interruption of the administration
[3]; 2.0 mg/m^2, 336 hours once every three weeks, one case
  reduction (tumor) in one SD case: about 15%
[3]; [9]
  dose limiting toxicity (DLT): not observed
  neutropenia of Grades 3 and 4: found in the second case each of two courses
[3]; 3.0 mg/m^2, 336 hours once every three weeks, RECIST
  efficacy (SD, stable disease), cases: one out of the three cases
[3]; 4.0 mg/m^2, 336 hours once every three weeks
  platelet reduction of Grade 4: one out of the three cases
[3]; 4.0 mg/m^2, 336 hours once every three weeks, three cases
  febrile neutropenia of CTCAE Grade 3: all cases
[3]; 4.0 mg/m^2, 336 hours once every three weeks, three out of three cases
  dose limiting toxicity (DLT) observed, cases: 100%
[4]; CNDAC continuous intravenous infusion (36 mg/kg/day Days 1 and 8 or 4.5 mg/kg/day Days 1 to 14)
  tumor volume after completion of administration: significantly reduced even after the administration was completed
[5]
  antitumor effect (relative tumor volume): high antitumor effect
[6]; 24-hour continuous intravenous infusion group, 36 mg/kg/day on Day 1
  body weight reduction at maximum: 20.4%
[6]; two-week continuous intravenous infusion, 4.5 mg/kg/day on Days 1 to 14
  body weight reduction at maximum: 4.6%
[7]; 3.0 mg/m^2, 168 hours once every two weeks
  adverse event requiring interruption of the administration: no adverse event was seen that required interruption of the administration
[7]; [10]
  febrile neutropenia of CTCAE Grade 3: one case
  neutropenia of Grade 4: one case
[7]; 4.0 mg/m^2, 168 hours once every two weeks, two out of the three cases
  efficacy (SD, stable disease), cases: 67%
[7]; 4.0 mg/m^2, 168 hours once every two weeks, two out of three evaluable cases
  dose limiting toxicity (DLT) observed, cases: 67%
[8]
  antitumor and antiproliferative effects: strong antitumor and antiproliferative effects

## Nc1ccn([C@@H]2O[C@H](CO)[C@@H](O)C2(F)F)c(=O)n1 [gemcitabine, reference compound]
[4]; gemcitabine continuous intravenous infusion 1.0 mg/kg/day for two weeks
  tumor volume after completion of administration: not reduced after the administration was completed
